Measured values taken from US20130065818A1, “Arylamide Compounds And Compositions And Uses Thereof” (POLYMEDIX, priority 2006, published 2013).
≈ marks a conversion by molar mass, not a printed value. Like-named read-outs stand apart in the source and are kept apart here.

Experiments:
[1] = system: Staphylococcus aureus fluoroquinolone-resistant; assay: MIC, 25 ocular isolates, broth microdilution (Example 8); format: cell-based
Description: (§1) • Mueller-Hinton Broth in tubes was inoculated with 25 ocular isolates of Staphylococcus aureus fluoroquinolone-susceptible, Staphylococcus aureus fluoroquinolone-resistant, Staphylococcus epidermidis (Coagulase-negative Staphylococcus) fluoroquinolone-susceptible, Staphylococcus epidermidis (Coagulase-negative Staphylococcus) fluoroquinolone-resistant, Pseudomonas aeruginosa and Serratia marcescens, plus two controls (Staphylococcus aureus and E. coli) and incubated at 37° C. overnight on a shaker set at 250 rpm.
(§2) On the day of testing, a 640 μg/ml (1280 μg/ml for Serratia marcescens and Pseudomonas aeruginosa) concentration was prepared from a 1% stock solution in 0.01% acetic acid, 0.2% BSA in polypropylene tubes.
(§3) Serial doubling dilutions in 0.01% acetic acid, 0.2% BSA in 96 well polypropylene plates, which are used as reservoirs for the inoculation of the test plates, were carried out to obtain serial dilutions of test agents at 10 times the required test concentrations: 640, 320, 160, 80, 40, 20, 10, 5, 2.5, 1.25, and 0.625 μg/ml (1280, 640, 320, 160, 80, 40, 20, 10, 5, 2.5, and 1.25 μg/ml for Serratia marcescens and Pseudomonas aeruginosa).
(§4) Ten μl of diluted 10×test agents was added to each well of one row of the 96 well polypropylene plates from column 2 to column 12 (column 1 is a control for bacteria alone, with no peptide). Test agent concentrations in columns 2-12 were as follows: 64, 32, 16, 8, 4, 2, 1, 0.5, 0.25, 0.125, and 0.0625 μg/ml (128, 64, 32, 16, 8, 4, 2, 1, 0.5, 0.25, and 0.125 μg/ml for Serratia marcescens and Pseudomonas aeruginosa). The same peptide was in each of the 8 rows. One plate contained dilutions of one test agent and 8 bacterial isolates.
(§5) On the day of testing, the overnight bacterial broth cultures of Staphylococcus aureus fluoroquinolone-susceptible, Staphylococcus aureus fluoroquinolone-resistant, Staphylococcus epidermidis (Coagulase-negative Staphylococcus) fluoroquinolone-susceptible, Staphylococcus epidermidis (Coagulase-negative Staphylococcus) fluoroquinolone-resistant, Serratia marcescens, and Pseudomonas aeruginosa, plus two controls (Staphylococcus aureus and E. coli) were diluted in 5 ml of trypticase soy broth to yield turbidity equal to a 0.5 McFarland standard. The final inoculum for MIC testing for Staphylococcus aureus fluoroquinolone-susceptible, Staphylococcus aureus fluoroquinolone-resistant, Staphylococcus epidermidis (Coagulase-negative Staphylococcus) fluoroquinolone-susceptible, Staphylococcus epidermidis (Coagulase-negative Staphylococcus) fluoroquinolone-resistant, Serratia marcescens, and Pseudomonas aeruginosa was achieved by placing 0.05 ml of the turbidity adjusted sample to 5 ml of Mueller-Hinton broth.
(§6) Ninety μl of the bacterial suspensions was dispensed in each well from column 1 to column 12. Each bacterial isolate was placed in one row of a 96 well polypropylene plate containing the test agents. The plates were placed on shaker at 15 minutes at room temperature, and then incubated at 37° C. overnight. MICs were determined visually as the lowest concentration of drug that inhibits visible bacterial growth.

[2] = system: Staphylococcus epidermidis (Coagulase-negative Staphylococcus) fluoroquinolone-susceptible; assay: as above; format: cell-based
Description: as §1, §2, §3, §4, §5, §6

For `N=C(N)NCCCCC(=O)Nc1cc(C(F)(F)F)cc(NC(=O)c2cc(C(=O)Nc3cc(C(F)(F)F)cc(NC(=O)CCCCNC(=N)N)c3O[C@@H]3CCNC3)ncn2)c1O[C@@H]1CCNC1` [Oligomer 4], the MIC50 ([1]; 25 isolates, Row 13) was 0.25 µg/mL (≈ 0.267 µM), the MIC90 ([1]; 25 isolates, Row 22) was 0.5 µg/mL (≈ 0.534 µM) and the “Range of MICs” value ([1]; 25 isolates, Summary of Results) was 0.125 to 1.0 µg/mL. It also gave an MIC ([1]; Staphylococcus aureus, 25 ocular isolates, read-out: Median MIC) of no more than 0.25 µg/mL, an MIC ([1]; Staphylococcus aureus, isolate 1—E504, read-out: MIC) of 0.25 µg/mL (≈ 0.267 µM) and an MIC ([1]; Staphylococcus aureus, isolate 2—E475, read-out: MIC) of 0.25 µg/mL (≈ 0.267 µM). For the same compound, the MIC ([1]; Staphylococcus aureus, isolate 3—E442, read-out: MIC) was 0.25 µg/mL (≈ 0.267 µM), the MIC ([1]; Staphylococcus aureus, isolate 4—E427, read-out: MIC) was 0.5 µg/mL (≈ 0.534 µM) and the MIC ([1]; Staphylococcus aureus, isolate 5—E425, read-out: MIC) was 0.25 µg/mL (≈ 0.267 µM). The MIC ([1]; Staphylococcus aureus, isolate 6—E424, read-out: MIC) was 0.25 µg/mL (≈ 0.267 µM), the MIC ([1]; Staphylococcus aureus, isolate 7—E417, read-out: MIC) was 1 µg/mL (≈ 1.07 µM) and the MIC ([1]; Staphylococcus aureus, isolate 8—E407, read-out: MIC) was 0.25 µg/mL (≈ 0.267 µM). For the same compound, the MIC ([1]; Staphylococcus aureus, isolate 9—E401, read-out: MIC) was 0.25 µg/mL (≈ 0.267 µM), the MIC ([1]; Staphylococcus aureus, isolate 10—K1659, read-out: MIC) was 0.25 µg/mL (≈ 0.267 µM) and the MIC ([1]; Staphylococcus aureus, isolate 11—E96, read-out: MIC) was 0.125 µg/mL (≈ 0.133 µM). It also gave an MIC ([1]; Staphylococcus aureus, isolate 12—E379, read-out: MIC) of 0.5 µg/mL (≈ 0.534 µM), an MIC ([1]; Staphylococcus aureus, isolate 13—E369, read-out: MIC) of 0.125 µg/mL (≈ 0.133 µM) and an MIC ([1]; Staphylococcus aureus, isolate 14—E361, read-out: MIC) of 0.25 µg/mL (≈ 0.267 µM). The MIC ([1]; Staphylococcus aureus, isolate 15—E339, read-out: MIC) was 0.25 µg/mL (≈ 0.267 µM), the MIC ([1]; Staphylococcus aureus, isolate 16—E333, read-out: MIC) was 0.25 µg/mL (≈ 0.267 µM) and the MIC ([1]; Staphylococcus aureus, isolate 17—E332, read-out: MIC) was 0.25 µg/mL (≈ 0.267 µM). For the same compound, the MIC ([1]; Staphylococcus aureus, isolate 18—E327, read-out: MIC) was 0.5 µg/mL (≈ 0.534 µM), the MIC ([1]; Staphylococcus aureus, isolate 19—E325, read-out: MIC) was 0.5 µg/mL (≈ 0.534 µM) and the MIC ([1]; Staphylococcus aureus, isolate 20—K950, read-out: MIC) was 0.5 µg/mL (≈ 0.534 µM). The MIC ([1]; Staphylococcus aureus, isolate 21—K839, read-out: MIC) was 0.25 µg/mL (≈ 0.267 µM), the MIC ([1]; Staphylococcus aureus, isolate 22—K1679, read-out: MIC) was 0.25 µg/mL (≈ 0.267 µM) and the MIC ([1]; Staphylococcus aureus, isolate 23—K1677, read-out: MIC) was 0.25 µg/mL (≈ 0.267 µM). For the same compound, the MIC ([1]; Staphylococcus aureus, isolate 24—K1672, read-out: MIC) was 0.25 µg/mL (≈ 0.267 µM), the MIC ([1]; Staphylococcus aureus, isolate 25—K1670, read-out: MIC) was 0.25 µg/mL (≈ 0.267 µM) and the MIC ([1]; Staphylococcus aureus, n=25 per group, read-out: Median MIC) was 0.25 µg/mL (≈ 0.267 µM). It also gave an MIC50 ([1]; Staphylococcus aureus, 25 isolates, Summary of Results, read-out: MIC50) of 0.25 µg/mL (≈ 0.267 µM), an MIC90 ([1]; Staphylococcus aureus, 25 isolates, Summary of Results, read-out: MIC90) of 0.5 µg/mL (≈ 0.534 µM) and an MIC ([1]; Staphylococcus aureus, 25 isolates, Summary of Results, read-out: Median MIC) of 0.25 µg/mL (≈ 0.267 µM). The MIC50 ([1]; n=25 per group) was 0.25 µg/mL (≈ 0.267 µM), the MIC90 ([1]; n=25 per group) was 0.5 µg/mL (≈ 0.534 µM) and the “Range of MICs” value ([1]; n=25 per group) was 0.125 to 1.0 µg/mL. It also gave an MIC, sorted list for MIC50 and MIC90 Determinations (QSSE-A) ([2]; 25 isolates sorted ascending, Row 1-25, <0.0625 was Replaced with 0.03125) of 0.25 µg/mL, an MIC50 ([2]; 25 isolates, Row 13) of 0.125 µg/mL (≈ 0.133 µM) and an MIC90 ([2]; 25 isolates, Row 22) of 0.25 µg/mL (≈ 0.267 µM). The “Range of MICs” value ([2]; 25 isolates, Summary of Results, <0.0625 was Replaced with 0.03125) was 0.03125 to 0.25 µg/mL, the MIC ([2]; Staphylococcus epidermidis, 25 ocular isolates, read-out: Median MIC) was no more than 0.25 µg/mL and the MIC ([2]; Staphylococcus epidermidis, isolate 1—E511, read-out: MIC) was 0.25 µg/mL (≈ 0.267 µM). For the same compound, the MIC ([2]; Staphylococcus epidermidis, isolate 2—E489, read-out: MIC) was 0.125 µg/mL (≈ 0.133 µM), the MIC ([2]; Staphylococcus epidermidis, isolate 3—E491, read-out: MIC) was 0.125 µg/mL (≈ 0.133 µM) and the MIC ([2]; Staphylococcus epidermidis, isolate 4—E476, read-out: MIC) was 0.25 µg/mL (≈ 0.267 µM). The MIC ([2]; Staphylococcus epidermidis, isolate 5—E473, read-out: MIC) was 0.25 µg/mL (≈ 0.267 µM), the MIC ([2]; Staphylococcus epidermidis, isolate 6—E462, read-out: MIC) was 0.125 µg/mL (≈ 0.133 µM) and the MIC ([2]; Staphylococcus epidermidis, isolate 7—E460, read-out: MIC) was 0.125 µg/mL (≈ 0.133 µM). The MIC ([2]; Staphylococcus epidermidis, isolate 8—E453, read-out: MIC) was 0.125 µg/mL (≈ 0.133 µM), the MIC ([2]; Staphylococcus epidermidis, isolate 9—E448, read-out: MIC) was 0.125 µg/mL (≈ 0.133 µM) and the MIC ([2]; Staphylococcus epidermidis, isolate 10—E443, read-out: MIC) was less than 0.0625 µg/mL. It also gave an MIC ([2]; Staphylococcus epidermidis, isolate 11—E441, read-out: MIC) of less than 0.0625 µg/mL, an MIC ([2]; Staphylococcus epidermidis, isolate 12—E438, read-out: MIC) of 0.125 µg/mL (≈ 0.133 µM) and an MIC ([2]; Staphylococcus epidermidis, isolate 13—E437, read-out: MIC) of 0.125 µg/mL (≈ 0.133 µM). The MIC ([2]; Staphylococcus epidermidis, isolate 14—E434, read-out: MIC) was 0.125 µg/mL (≈ 0.133 µM), the MIC ([2]; Staphylococcus epidermidis, isolate 15—E433, read-out: MIC) was 0.125 µg/mL (≈ 0.133 µM) and the MIC ([2]; Staphylococcus epidermidis, isolate 16—E430, read-out: MIC) was less than 0.0625 µg/mL. It also gave an MIC ([2]; Staphylococcus epidermidis, isolate 17—E420, read-out: MIC) of 0.125 µg/mL (≈ 0.133 µM), an MIC ([2]; Staphylococcus epidermidis, isolate 18—E419, read-out: MIC) of 0.125 µg/mL (≈ 0.133 µM) and an MIC ([2]; Staphylococcus epidermidis, isolate 19—E403, read-out: MIC) of 0.125 µg/mL (≈ 0.133 µM). It also gave an MIC ([2]; Staphylococcus epidermidis, isolate 20—E394, read-out: MIC) of 0.125 µg/mL (≈ 0.133 µM), an MIC ([2]; Staphylococcus epidermidis, isolate 21—E393, read-out: MIC) of 0.125 µg/mL (≈ 0.133 µM) and an MIC ([2]; Staphylococcus epidermidis, isolate 22—E328, read-out: MIC) of 0.25 µg/mL (≈ 0.267 µM). The MIC ([2]; Staphylococcus epidermidis, isolate 23—E382, read-out: MIC) was 0.125 µg/mL (≈ 0.133 µM), the MIC ([2]; Staphylococcus epidermidis, isolate 24—E381, read-out: MIC) was 0.125 µg/mL (≈ 0.133 µM) and the MIC ([2]; Staphylococcus epidermidis, isolate 25—E372, read-out: MIC) was 0.25 µg/mL (≈ 0.267 µM). It also gave an MIC ([2]; Staphylococcus epidermidis, n=25 per group, read-out: Median MIC) of 0.125 µg/mL (≈ 0.133 µM), an MIC50 ([2]; Staphylococcus epidermidis, 25 isolates, Summary of Results, read-out: MIC50) of 0.125 µg/mL (≈ 0.133 µM) and an MIC90 ([2]; Staphylococcus epidermidis, 25 isolates, Summary of Results, read-out: MIC90) of 0.25 µg/mL (≈ 0.267 µM). The MIC ([2]; Staphylococcus epidermidis, 25 isolates, Summary of Results, read-out: Median MIC) was 0.125 µg/mL (≈ 0.133 µM), the MIC50 ([2]; n=25 per group) was 0.125 µg/mL (≈ 0.133 µM) and the MIC90 ([2]; n=25 per group) was 0.25 µg/mL (≈ 0.267 µM). The “Range of MICs” value ([2]; n=25 per group) was 0.03125 to 0.25 µg/mL.
